Test results from patent US12263155B2, “Combinations of monoamine oxidase inhibitors and serotonin receptor agonists and their therapeutic use” (Remedi, Inc., priority 2022, dated 2025).

Experiments:
[1] = target: T1, Oxidase MAO-A Peripheral (Rattus norvegicus, UniProt P21396); test: NovaScreen ligand-binding screen, MAO-A
T1 construct: purchased NovaScreen
T1 sequence (P21396 1-526): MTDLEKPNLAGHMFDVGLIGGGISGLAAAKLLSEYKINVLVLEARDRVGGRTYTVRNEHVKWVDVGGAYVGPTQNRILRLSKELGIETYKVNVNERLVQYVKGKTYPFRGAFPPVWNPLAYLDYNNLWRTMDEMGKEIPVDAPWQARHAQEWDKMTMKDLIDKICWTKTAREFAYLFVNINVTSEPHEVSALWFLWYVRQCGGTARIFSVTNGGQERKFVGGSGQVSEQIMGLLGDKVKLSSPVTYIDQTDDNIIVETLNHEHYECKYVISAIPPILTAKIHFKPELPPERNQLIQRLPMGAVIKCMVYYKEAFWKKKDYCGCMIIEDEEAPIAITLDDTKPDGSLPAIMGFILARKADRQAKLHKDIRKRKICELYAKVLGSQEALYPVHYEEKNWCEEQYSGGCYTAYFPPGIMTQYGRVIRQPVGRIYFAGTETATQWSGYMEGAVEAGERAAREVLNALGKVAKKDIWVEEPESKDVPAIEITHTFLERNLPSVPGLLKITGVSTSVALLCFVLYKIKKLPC
Method: (§1) Methods: Investigational drug candidates CX157 were analyzed in NovaScreen's bank of ligand-binding reactions to test for specificity. CX157 was screened at concentrations of both 10.0 nM and 100 nM as potential competitors in binding reactions involving nine classes containing 69 binding sites. The following binding reactions are tested: Adenosine Non-selective, Adrenergic Alpha 1 Non-selective, Adrenergic Alpha 2 Non-selective, Adrenergic Beta Non-selective, Dopamine Transporter, Dopamine Non-selective, GABA A Agonist Site, GABA A BDZ alpha 1 site, GABA B, Glutamate AMPA Site (Ionotropic), Glutamate Kainate Site (Ionotropic), Glutamate NMDA Agonist Site (Ionotropic), Glutamate NMDA Glycine (Stry-insens Site) (Ionotrophic), Glycine Strychnine-sensitive, Histamine H1, Histamine H2, Histamine H3, Melatonin Non-selective, Muscarinic M1 (hr), Muscarinic M2 (hr), Muscarinic Non-selective Central, Muscarinic Non-selective Peripheral, Nicotinic (α-BnTx insensitive) Neuronal, Norepinephrine Transporter, Opioid Non-selective, Orphanin (hr), Serotonin Transporter, Serotonin Non-selective, Sigma Non-selective, Estrogen, Testosterone (cytosolic), Calcium Channel Type L (Dihydropyridine Site), Calcium Channel Type N, Potassium Channel ATP-Sensitive, Potassium Channel Ca2+ Act. VI, Potassium Channel I[Kr]

[2] = target: T2, MAO-B (Homo sapiens, UniProt P27338)
T2 sequence (P27338 1-520): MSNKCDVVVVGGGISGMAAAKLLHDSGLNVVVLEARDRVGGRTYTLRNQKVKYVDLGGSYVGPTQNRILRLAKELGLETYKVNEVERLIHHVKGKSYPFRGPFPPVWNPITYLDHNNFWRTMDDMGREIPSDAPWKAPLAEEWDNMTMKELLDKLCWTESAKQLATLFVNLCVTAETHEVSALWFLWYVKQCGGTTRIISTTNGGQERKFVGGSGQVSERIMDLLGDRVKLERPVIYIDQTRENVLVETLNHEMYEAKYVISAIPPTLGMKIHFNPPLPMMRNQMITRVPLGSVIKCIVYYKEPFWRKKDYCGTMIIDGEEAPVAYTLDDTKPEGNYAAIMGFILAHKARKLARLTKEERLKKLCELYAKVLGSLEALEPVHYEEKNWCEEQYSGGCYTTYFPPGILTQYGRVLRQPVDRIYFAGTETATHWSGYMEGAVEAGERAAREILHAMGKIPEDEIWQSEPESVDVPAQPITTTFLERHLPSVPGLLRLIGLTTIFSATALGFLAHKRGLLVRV

[3] = target: T3, Oxidase MAO-B Peripheral (Rattus norvegicus, UniProt P19643); test: NovaScreen ligand-binding screen, MAO-B; conditions: 10.0 nM and 100 nM
T3 construct: purchased NovaScreen
T3 sequence (P19643 1-520): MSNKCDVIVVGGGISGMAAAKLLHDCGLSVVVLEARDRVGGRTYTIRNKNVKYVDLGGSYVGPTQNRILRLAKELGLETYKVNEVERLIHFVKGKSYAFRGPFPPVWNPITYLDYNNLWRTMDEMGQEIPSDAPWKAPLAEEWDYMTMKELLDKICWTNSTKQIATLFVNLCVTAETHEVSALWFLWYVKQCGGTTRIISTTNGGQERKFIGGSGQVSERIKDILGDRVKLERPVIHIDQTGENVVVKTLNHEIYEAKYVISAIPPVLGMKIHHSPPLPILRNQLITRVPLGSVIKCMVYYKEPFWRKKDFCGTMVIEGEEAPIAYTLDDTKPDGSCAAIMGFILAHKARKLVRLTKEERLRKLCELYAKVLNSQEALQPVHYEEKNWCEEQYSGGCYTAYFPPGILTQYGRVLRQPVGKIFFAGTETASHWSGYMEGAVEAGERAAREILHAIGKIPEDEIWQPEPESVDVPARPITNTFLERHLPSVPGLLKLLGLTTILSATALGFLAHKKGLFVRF
Method: as §1

[4] = test system: 69 binding sites in nine classes; test: NovaScreen ligand-binding screen, other binding sites; conditions: 10.0 nM and 100 nM
Method: as §1

O=S1(=O)c2ccc(F)cc2Oc2cc(OCC(F)(F)F)ccc21 [CX157, 3-fluoro-7(2,2,2-trifluorethoxy)phenoxathiine-10,10-dioxide]
reduction of [14C]-5-HT binding ([1]; 10.0 nM CX157): 63.4% | reduction of [14C]-5-HT binding ([1]; 100 nM CX157): 100.6% | Kd ([1]; read-out: Kd, competition for [14C]-serotonin (5-HT) binding): 8.7 nM | selectivity for MAO-A inhibition over MAO-B inhibition ([2]; human brain homogenates): > 1000 fold | MAO-B inhibition ([2]; tested concentration 10 μM): no detectable MAO-B inhibition | binding to MAO-B [3]: did not bind to MAO-B | interactions with other binding sites in the screen [4]: no interactions
